The subject of the first assay is MDA-MB-468 cell line with high TROP-2 expression. Kind of assay: Inhibition test of Exatecan derivatives (payload) on in vitro proliferation of tumor cells. Type of assay: cell-based, human. The conditions noted are these: Homo sapiens, 72 h; MDA-MB-468 cells, 3 days, CellTiter-Glo; read-out: IC50 of MDA-MB-468 cell proliferation inhibition in vitro. The procedure: The cell line used in this experiment is the MDA-MB-468 cell line with high TROP-2 expression (Nanjing Cobioer Biosciences Co., Ltd., catalog number: CBP60387). Prepare cell suspension with fresh cell culture medium containing 10% FBS at a density of 3×10^3 cells/mL, add 90 μL per well into an all-white 96-well cell culture plate (Beyotime, item number: FCP968-80pcs), 5% carbon dioxide 37° C. for 24 h. Compounds 1-36 were formulated with DMSO to 1 mM, respectively. Add 20 μL of different samples to be tested in the first column of the 96-well U-bottom dispensing plate, and the sample concentration is 1000 uM; add 20 μL DMSO to each well of the second to tenth columns. Take 5 μL of the sample from the first column to 20 μL DMSO in the second column, mix well, take 5 μL to the third column, and so on to the ninth column. Take 5 μL of the medicine from each well of the dispensing plate to 95 μL of DMEM medium, and mix well. Add 10 μL of prepared samples to be tested at different concentrations to the culture plate, and duplicate wells for each sample. 5% carbon dioxide and cultured at 37° C. for 3 days. Add 50 μL of CTG (CellTiter-Glo® Luminescent Cell Viability Assay, Promega, item number: G7573) to each well, mix on a shaker at room temperature for 30 minutes, incubate for 10 minutes, and read chemiluminescence on a microplate reader (TECAN, Spark). Graphpad Prism 8 software used for data analysis.
Take `CC[C@@]1(O)C(=O)OCc2c1cc1n(c2=O)Cc2c-1nc1cc(F)c(C)c3c1c2[C@@H](NC(=O)Cc1cccc(N)c1)CC3` [Compound 23]: the IC50 was determined as 2.64 nM.

The same assay, now with this note: Homo sapiens, MDA-MB-468, 72 h, read-out: IC50 of MDA-MB-468 cell proliferation inhibition in vitro.
Turning to `CC[C@@]1(O)C(=O)OCc2c1cc1n(c2=O)Cc2c-1nc1cc(F)c(C)c3c1c2[C@@H](NC(=O)C1CNC1)CC3` [Compound 1], the IC50 was 135 nM. On to `CC[C@@]1(O)C(=O)OCc2c1cc1n(c2=O)Cc2c-1nc1cc(F)c(C)c3c1c2[C@@H](NC(=O)Cc1ccc(N)cc1)CC3` [Compound 2], for which the IC50 was determined as 3.38 nM. The same measure, in the same setting: next, `CC[C@@]1(O)C(=O)OCc2c1cc1n(c2=O)Cc2c-1nc1cc(F)c(C)c3c1c2[C@@H](NC(=O)Cc1ccc(NC(=O)CO)cc1)CC3` [Compound 3]: 43.6 nM.

Turning to `CC[C@@]1(O)C(=O)OCc2c1cc1n(c2=O)Cc2c-1nc1cc(F)c(C)c3c1c2[C@@H](NC(=O)[C@@H]1CCCN1)CC3` [Compound 4], the IC50 was determined as 4.32 nM. Regarding `CC[C@@]1(O)C(=O)OCc2c1cc1n(c2=O)Cc2c-1nc1cc(F)c(C)c3c1c2[C@@H](NC(=O)[C@@H]1CCCN1C(=O)CO)CC3` [Compound 5], the IC50 stood at 19.3 nM. Still for that read-out and setting: next, `CC[C@@]1(O)C(=O)OCc2c1cc1n(c2=O)Cc2c-1nc1cc(F)c(C)c3c1c2[C@@H](NC(=O)c1ccc(O)c(Cl)c1)CC3` [Compound 6]: 9.81 nM; `CC[C@@]1(O)C(=O)OCc2c1cc1n(c2=O)Cc2c-1nc1cc(F)c(C)c3c1c2[C@@H](NC(=O)c1ccc(Cl)c(O)c1)CC3` [Compound 7]: 9.45 nM; `CC[C@@]1(O)C(=O)OCc2c1cc1n(c2=O)Cc2c-1nc1cc(F)c(C)c3c1c2[C@@H](NC(=O)NCC(F)(F)F)CC3` [Compound 8]: 2.72 nM.

In the case of `CC[C@@]1(O)C(=O)OCc2c1cc1n(c2=O)Cc2c-1nc1cc(F)c(C)c3c1c2[C@@H](NC(=O)N[C@H]1CCCNC1)CC3` [Compound 12], the IC50 was 56.2 nM.

Take `CC[C@@]1(O)C(=O)OCc2c1cc1n(c2=O)Cc2c-1nc1cc(F)c(C)c3c1c2[C@@H](NC(=O)N[C@H]1CCNC1)CC3` [Compound 13]: the IC50 is 76.5 nM.

Consider `CC[C@@]1(O)C(=O)OCc2c1cc1n(c2=O)Cc2c-1nc1cc(F)c(C)c3c1c2[C@@H](NC(=O)N[C@@H]1CCNC1)CC3` [Compound 14], for which the IC50 amounted to 48 nM. Same read-out and setting: next, `CC[C@@]1(O)C(=O)OCc2c1cc1n(c2=O)Cc2c-1nc1cc(F)c(C)c3c1c2[C@@H](NC(=O)Cc1ccc(N)cc1OC)CC3` [Compound 19]: 7.52 nM; `CC[C@@]1(O)C(=O)OCc2c1cc1n(c2=O)Cc2c-1nc1cc(F)c(C)c3c1c2[C@@H](NC(=O)Cc1ccc(N)cc1F)CC3` [Compound 21]: 3.05 nM; `CC[C@@]1(O)C(=O)OCc2c1cc1n(c2=O)Cc2c-1nc1cc(F)c(C)c3c1c2[C@@H](NC(=O)Cc1ccc(O)cc1)CC3` [Compound 22]: 2.6 nM. Still for that read-out and setting: next, `CC[C@@]1(O)C(=O)OCc2c1cc1n(c2=O)Cc2c-1nc1cc(F)c(C)c3c1c2[C@@H](NC(=O)Cc1ccccc1N)CC3` [Compound 24]: 1.65 nM. On to `CC[C@@]1(O)C(=O)OCc2c1cc1n(c2=O)Cc2c-1nc1cc(F)c(C)c3c1c2[C@@H](NC(=O)CCc1ccc(N)cc1)CC3` [Compound 25], for which the IC50 is 8.63 nM.

As to `CC[C@@]1(O)C(=O)OCc2c1cc1n(c2=O)Cc2c-1nc1cc(F)c(C)c3c1c2[C@@H](NC(=O)CCCc1ccc(N)cc1)CC3` [Compound 26], the IC50 was determined as 3.28 nM. Take `CC[C@@]1(O)C(=O)OCc2c1cc1n(c2=O)Cc2c-1nc1cc(F)c(C)c3c1c2[C@@H](NC(=O)C1CCNCC1)CC3` [Compound 31]: the IC50 turned out to be 136 nM.

The same assay, now with this note: MDA-MB-468 cells, 3 days, CellTiter-Glo; read-out: IC50 of MDA-MB-468 cell proliferation inhibition in vitro.
Turning to `CC[C@@]1(O)C(=O)OCc2c1cc1n(c2=O)Cc2c-1nc1cc(F)c(C)c3c1c2[C@@H](NC(=O)C1CCCN1)CC3` (some centres unmarked) [Compound 36], the IC50 was 6.34 nM.

For the origin of these results see patent US20250161473A1, “EXATECAN DERIVATIVE-ANTIBODY CONJUGATE AND MEDICAL USE THEREOF” (Gan & Lee Pharmaceuticals Co., Ltd., priority 2022, published 2025).
